According to PubChem BioAssay (NCI):
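Each compound was tested at five concentrations against cells in 96-well plates for 48 hours. TGI: total growth inhibition.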

Legend:
Experiment in all cases: inhibition of tumour cell growth, NCI panel, 48 h
UACC-62 melanoma = test system: UACC-62 melanoma
MDA-N = test system: MDA-N
MCF7 breast = test system: MCF7 breast
HOP-92 NSCLC = test system: HOP-92 NSCLC
K-562 leukemia = test system: K-562 leukemia
NCI-H460 lung = test system: NCI-H460 lung
SK-OV-3 ovarian = test system: SK-OV-3 ovarian
SF-539 CNS = test system: SF-539 CNS
HT29 colon = test system: HT29 colon
OVCAR-5 ovarian = test system: OVCAR-5 ovarian
OVCAR-8 ovarian = test system: OVCAR-8 ovarian
M14 melanoma = test system: M14 melanoma
HCT-15 colon = test system: HCT-15 colon
MDA-MB-231 breast = test system: MDA-MB-231 breast
NCI/ADR-RES ovarian = test system: NCI/ADR-RES ovarian
T-47D breast = test system: T-47D breast
U251 CNS = test system: U251 CNS
KM12 colon = test system: KM12 colon
HL-60(TB) leukemia = test system: HL-60(TB) leukemia
RPMI-8226 leukemia = test system: RPMI-8226 leukemia
SF-295 CNS = test system: SF-295 CNS
BT-549 breast = test system: BT-549 breast
MDA-MB-435 = test system: MDA-MB-435
MALME-3M melanoma = test system: MALME-3M melanoma
COLO 205 colon = test system: COLO 205 colon
SK-MEL-28 melanoma = test system: SK-MEL-28 melanoma
UACC-257 melanoma = test system: UACC-257 melanoma
OVCAR-4 ovarian = test system: OVCAR-4 ovarian
SNB-75 CNS = test system: SNB-75 CNS
TK-10 renal = test system: TK-10 renal
IGROV1 ovarian = test system: IGROV1 ovarian
LOX IMVI melanoma = test system: LOX IMVI melanoma
SK-MEL-2 melanoma = test system: SK-MEL-2 melanoma
PC-3 prostate = test system: PC-3 prostate
MOLT-4 leukemia = test system: MOLT-4 leukemia
NCI-H522 lung = test system: NCI-H522 lung
SN12C renal = test system: SN12C renal
SNB-19 CNS = test system: SNB-19 CNS
HS 578T breast = test system: HS 578T breast
ACHN renal = test system: ACHN renal
OVCAR-3 ovarian = test system: OVCAR-3 ovarian
NCI-H23 lung = test system: NCI-H23 lung
SR leukemia = test system: SR leukemia
CAKI-1 renal = test system: CAKI-1 renal
SW-620 colon = test system: SW-620 colon
UO-31 renal = test system: UO-31 renal
DU-145 prostate = test system: DU-145 prostate
CCRF-CEM leukemia = test system: CCRF-CEM leukemia
A498 renal = test system: A498 renal
SK-MEL-5 melanoma = test system: SK-MEL-5 melanoma
SF-268 CNS = test system: SF-268 CNS
A549 NSCLC = test system: A549 NSCLC
HOP-62 NSCLC = test system: HOP-62 NSCLC
NCI-H226 lung = test system: NCI-H226 lung
786-0 renal = test system: 786-0 renal
HCC-2998 colon = test system: HCC-2998 colon
EKVX NSCLC = test system: EKVX NSCLC
HCT-116 colon = test system: HCT-116 colon

For `O=C(Cc1nc2cccnc2nc1/C=C(\O)c1ccccc1)c1ccccc1`, the TGI (UACC-62 melanoma) was 18.6 µM, the TGI (MDA-N) was > 100 µM and the TGI (MCF7 breast) was 27.6 µM. The TGI (HOP-92 NSCLC) was 59 µM, the TGI (K-562 leukemia) was > 100 µM and the TGI (NCI-H460 lung) was 22.7 µM. For the same compound, the TGI (SK-OV-3 ovarian) was > 100 µM, the TGI (SF-539 CNS) was > 100 µM and the TGI (HT29 colon) was > 100 µM. For the same compound, the TGI (OVCAR-5 ovarian) was > 100 µM, the TGI (OVCAR-8 ovarian) was > 100 µM and the TGI (M14 melanoma) was > 100 µM. For the same compound, the TGI (HCT-15 colon) was > 100 µM, the TGI (MDA-MB-231 breast) was > 100 µM and the TGI (NCI/ADR-RES ovarian) was > 100 µM. For the same compound, the TGI (T-47D breast) was > 100 µM, the TGI (U251 CNS) was > 100 µM and the TGI (KM12 colon) was > 100 µM. For the same compound, the TGI (HL-60(TB) leukemia) was 66.6 µM, the TGI (RPMI-8226 leukemia) was 29 µM and the TGI (SF-295 CNS) was 82.1 µM. The TGI (BT-549 breast) was 38.4 µM, the TGI (MDA-MB-435) was 82 µM and the TGI (MALME-3M melanoma) was > 100 µM. The TGI (COLO 205 colon) was 25.1 µM, the TGI (SK-MEL-28 melanoma) was > 100 µM and the TGI (UACC-257 melanoma) was > 100 µM. The TGI (OVCAR-4 ovarian) was > 100 µM, the TGI (SNB-75 CNS) was 96.4 µM and the TGI (TK-10 renal) was > 100 µM. For the same compound, the TGI (IGROV1 ovarian) was > 100 µM, the TGI (LOX IMVI melanoma) was 87 µM and the TGI (SK-MEL-2 melanoma) was 65.4 µM. For the same compound, the TGI (PC-3 prostate) was > 100 µM, the TGI (MOLT-4 leukemia) was > 100 µM and the TGI (NCI-H522 lung) was 35.6 µM. The TGI (SN12C renal) was 59.1 µM, the TGI (SNB-19 CNS) was > 100 µM and the TGI (HS 578T breast) was > 100 µM. For the same compound, the TGI (ACHN renal) was > 100 µM, the TGI (OVCAR-3 ovarian) was 13.3 µM and the TGI (NCI-H23 lung) was > 100 µM. For the same compound, the TGI (SR leukemia) was > 100 µM, the TGI (CAKI-1 renal) was 30.5 µM and the TGI (SW-620 colon) was > 100 µM. For the same compound, the TGI (UO-31 renal) was 79.6 µM, the TGI (DU-145 prostate) was > 100 µM and the TGI (CCRF-CEM leukemia) was 29.9 µM. For the same compound, the TGI (A498 renal) was 74 µM, the TGI (SK-MEL-5 melanoma) was 38 µM and the TGI (SF-268 CNS) was 46 µM. The TGI (A549 NSCLC) was > 100 µM and the TGI (HOP-62 NSCLC) was 58.4 µM.

For `Cc1cc(C)n(-c2nc3ccccc3c(=O)[nH]2)n1`, the TGI (UACC-62 melanoma) was 21.3 µM, the TGI (MDA-N) was > 76.9 µM and the TGI (MCF7 breast) was > 100 µM. For the same compound, the TGI (HOP-92 NSCLC) was > 68.3 µM, the TGI (K-562 leukemia) was > 100 µM and the TGI (NCI-H460 lung) was > 49.3 µM. For the same compound, the TGI (SK-OV-3 ovarian) was > 100 µM, the TGI (SF-539 CNS) was > 75 µM and the TGI (HT29 colon) was > 100 µM. The TGI (OVCAR-5 ovarian) was > 100 µM, the TGI (M14 melanoma) was > 100 µM and the TGI (NCI-H226 lung) was > 66.8 µM. It also gave a TGI (HCT-15 colon) of 23.9 µM, a TGI (MDA-MB-231 breast) of 25.3 µM and a TGI (NCI/ADR-RES ovarian) of 13.9 µM. For the same compound, the TGI (T-47D breast) was 48.8 µM, the TGI (786-0 renal) was 19.6 µM and the TGI (U251 CNS) was > 45.5 µM. For the same compound, the TGI (KM12 colon) was 23.1 µM, the TGI (HL-60(TB) leukemia) was > 33.7 µM and the TGI (RPMI-8226 leukemia) was > 41.9 µM. The TGI (SF-295 CNS) was > 50.7 µM, the TGI (BT-549 breast) was > 100 µM and the TGI (MDA-MB-435) was 26.9 µM. For the same compound, the TGI (COLO 205 colon) was 17.1 µM, the TGI (SK-MEL-28 melanoma) was > 41.2 µM and the TGI (UACC-257 melanoma) was > 100 µM. The TGI (OVCAR-4 ovarian) was > 100 µM, the TGI (SNB-75 CNS) was > 71.6 µM and the TGI (TK-10 renal) was > 100 µM. For the same compound, the TGI (IGROV1 ovarian) was 12.4 µM, the TGI (LOX IMVI melanoma) was 13.7 µM and the TGI (SK-MEL-2 melanoma) was 32.2 µM. For the same compound, the TGI (PC-3 prostate) was 25.8 µM, the TGI (MOLT-4 leukemia) was 50.5 µM and the TGI (NCI-H522 lung) was 18.8 µM. For the same compound, the TGI (SN12C renal) was > 100 µM, the TGI (SNB-19 CNS) was > 72.1 µM and the TGI (HS 578T breast) was > 91.5 µM. For the same compound, the TGI (ACHN renal) was 21.8 µM, the TGI (HCC-2998 colon) was 31.3 µM and the TGI (OVCAR-3 ovarian) was > 45 µM. The TGI (NCI-H23 lung) was 32.8 µM, the TGI (EKVX NSCLC) was 28.9 µM and the TGI (SR leukemia) was > 29.5 µM. It also gave a TGI (HCT-116 colon) of 21.6 µM, a TGI (CAKI-1 renal) of 37.5 µM and a TGI (SW-620 colon) of 38.9 µM. The TGI (UO-31 renal) was 36.8 µM, the TGI (DU-145 prostate) was 21.3 µM and the TGI (CCRF-CEM leukemia) was > 100 µM. The TGI (A498 renal) was > 63.8 µM, the TGI (SK-MEL-5 melanoma) was 17.8 µM and the TGI (SF-268 CNS) was > 47.1 µM. For the same compound, the TGI (A549 NSCLC) was > 35.5 µM and the TGI (HOP-62 NSCLC) was > 43.7 µM.

Compound `COC(O)C(=O)c1c2c(cc3c1CCC3)CCCC2` (stereo unspecified) has a TGI (UACC-62 melanoma) of 12.3 µM, a TGI (MDA-N) of 30.4 µM and a TGI (MCF7 breast) of 18 µM. The TGI (K-562 leukemia) was 12.7 µM, the TGI (NCI-H460 lung) was 19.7 µM and the TGI (SK-OV-3 ovarian) was 24.6 µM. It also gave a TGI (SF-539 CNS) of 16.6 µM, a TGI (HT29 colon) of 12.9 µM and a TGI (OVCAR-5 ovarian) of 36.7 µM. The TGI (OVCAR-8 ovarian) was 25.4 µM, the TGI (M14 melanoma) was 24.9 µM and the TGI (NCI-H226 lung) was 38 µM. It also gave a TGI (HCT-15 colon) of 13.8 µM, a TGI (MDA-MB-231 breast) of 27.6 µM and a TGI (NCI/ADR-RES ovarian) of 61.5 µM. The TGI (T-47D breast) was 44.2 µM, the TGI (786-0 renal) was 27.8 µM and the TGI (U251 CNS) was 27.8 µM. It also gave a TGI (KM12 colon) of 34.1 µM, a TGI (HL-60(TB) leukemia) of 4.31 µM and a TGI (RPMI-8226 leukemia) of 5.63 µM. For the same compound, the TGI (SF-295 CNS) was 26 µM, the TGI (BT-549 breast) was 6.41 µM and the TGI (MDA-MB-435) was 36.7 µM. For the same compound, the TGI (MALME-3M melanoma) was 27.8 µM, the TGI (COLO 205 colon) was 19.3 µM and the TGI (SK-MEL-28 melanoma) was 26.4 µM. It also gave a TGI (UACC-257 melanoma) of 25.9 µM, a TGI (OVCAR-4 ovarian) of 17.5 µM and a TGI (SNB-75 CNS) of 26 µM. For the same compound, the TGI (TK-10 renal) was 29.9 µM, the TGI (IGROV1 ovarian) was 14 µM and the TGI (LOX IMVI melanoma) was 4.95 µM. The TGI (SK-MEL-2 melanoma) was 30.2 µM, the TGI (PC-3 prostate) was 11 µM and the TGI (MOLT-4 leukemia) was 14.2 µM. It also gave a TGI (NCI-H522 lung) of 13.2 µM, a TGI (SN12C renal) of 19.5 µM and a TGI (SNB-19 CNS) of 32.8 µM. For the same compound, the TGI (HS 578T breast) was 36.2 µM, the TGI (ACHN renal) was 21 µM and the TGI (HCC-2998 colon) was 4.28 µM. The TGI (OVCAR-3 ovarian) was 14.5 µM, the TGI (NCI-H23 lung) was 31.7 µM and the TGI (EKVX NSCLC) was 31.1 µM. It also gave a TGI (SR leukemia) of 13.9 µM, a TGI (HCT-116 colon) of 4.6 µM and a TGI (CAKI-1 renal) of 28.3 µM. The TGI (SW-620 colon) was 12.3 µM, the TGI (UO-31 renal) was 31.5 µM and the TGI (DU-145 prostate) was 30.5 µM. It also gave a TGI (CCRF-CEM leukemia) of 6.69 µM, a TGI (A498 renal) of 18 µM and a TGI (SK-MEL-5 melanoma) of 9.47 µM. The TGI (SF-268 CNS) was 45.5 µM, the TGI (A549 NSCLC) was 40.9 µM and the TGI (HOP-62 NSCLC) was 33.3 µM.
